Measurements from patent US12491170B2, “Stable treprostinil prodrugs” (United Therapeutics Corporation, priority 2020, dated 2025).

Assays:
[1] = Stability in cryopreserved hepatocytes, human
Method: (§1) Mixed-gender human cryopreserved hepatocytes, male Sprague-Dawley rat cryopreserved hepatocytes, and male Beagle dog cryopreserved hepatocytes were purchased from XenoTech. The hepatocytes were thawed and prepared according to the vendor's instructions, pooled into Krebs Henseleit buffer (KHB, pH 7.4), and kept on ice prior to the experiments. […] The final DMSO content in the incubation mixture was ≤0.1%. […] Aliquots of the test article were withdrawn (n=1) at 0, 15, 30, 60, and 120 minutes. […] Aliquots of 7-HC were withdrawn (n=1) at 0 and 15 minutes. The reaction was immediately terminated by adding two volumes of ice-cold acetonitrile (ACN) to the test article samples and three volumes of ACN containing internal standard to the positive control samples. The samples were then mixed and centrifuged to precipitate proteins. An aliquot of the supernatant was then diluted with water and analyzed by LC-MS/MS against calibration standards prepared in a matched matrix. […] All test article samples were analyzed for the dosed prodrugs as well as the drug, treprostinil. The test article concentration was compared to the concentration at time 0 to determine the percent of test article remaining at each time point. Half-lives and clearance values were calculated using GraphPad software, fitting to a single-phase exponential decay equation.

[2] = Stability in cryopreserved hepatocytes, rat
Method: as §1

[3] = Stability in cryopreserved hepatocytes, dog
Method: as §1

[4] = Stability in human subcutaneous skin homogenate
Method: The pool of skin homogenate was prepared by combining equal volumes of three lots that were tested in the initial skin homogenate lot assessment experiments.
A stock solution of calcein-AM was first prepared at 5 mM in DMSO, followed by a serial dilution into methanol at a concentration of 100 μM. 495 μL of skin homogenate was thawed and warmed to 37° C. A 5 μL aliquot of the 100 μM calcein-AM solution was spiked into the skin homogenate, for a final calcein-AM dosing concentration of 1 μM. After briefly mixing, 150 μL aliquots were removed in triplicate and transferred to 96-well Falcon plates. The plates were placed onto a Thermomixer and maintained at 37° C., with gentle shaking for the duration of the experiment. At each time point (0, 15, 30, 60, and 120 minutes), the plate was removed from the Thermomixer and transferred to a FLUOstar® plate reader, and the formation of calcein (Sigma) was monitored by fluorescence (490/515 nm). Calibration standards of calcein were prepared in distilled water by serial dilutions of a calcein DMSO stock at final concentrations ranging from 1 μM to 1 nM. All samples and standards were read concurrently (Table 13).
For each of the test articles, 495 μL of skin homogenate was added to triplicate centrifuge tubes. To each tube, 5 μL of a 100 μM solution of test article was added, for a final test article dosing concentration of 1 μM. The tubes were placed onto a Thermomixer and maintained at 37° C. with gentle shaking for the duration of the experiment. At each time point (0, 30, 60, and 120 minutes), a 100 μL aliquot was removed from each tube and combined with 200 μL of acetonitrile to stop the stability reaction. The tubes were mixed and centrifuged at 3000 rpm for 10 minutes. Aliquots of supernatant were removed and diluted 1:1 with distilled water containing internal standard (2 μM treprostinil-d4). Calibration standards for the treprostinil analysis were prepared for each test article in a surrogate matrix (supernatant from a mixture of 1:2 human plasma:acetonitrile), at concentrations ranging from 1 μM to 1 nM. Calibration standards were also diluted 1:1 with distilled water containing internal standard. The disappearance of each individual test article was monitored, as well as the formation of treprostinil (Table 14 and Table 15).

[5] = Stability in liver microsomes, human; details: human
Method: (§2) Mixed-gender human liver microsomes, male Sprague-Dawley rat liver microsomes, and male Beagle dog liver microsomes were purchased from XenoTech. The reaction mixture, minus NADPH, was prepared as described below. […] An aliquot of the reaction mixture (without cofactor) was equilibrated in a shaking water bath at 37° C. for 5 minutes. The reaction was initiated by the addition of cofactor, and the mixture was incubated in a shaking water bath at 37° C. Aliquots (200 μL) were withdrawn at 0, 10, 20, 30, and 60 minutes. Test article samples were immediately combined with 400 μL of ice-cold acetonitrile (ACN) to terminate the reaction. […] The samples were then mixed and centrifuged to precipitate proteins. Aliquots of the supernatant were removed, diluted 1:1 into distilled water containing internal standard, and analyzed by LC-MS/MS against calibration standards prepared in a matched matrix. All samples were analyzed for the dosed prodrugs as well as the drug, treprostinil. The test article concentration was compared to the concentration at time 0 to determine the percent of test article remaining at each time point. Half-lives and clearance were calculated using GraphPad software, fitting to a single-phase exponential decay equation.
(§3) • Liver Microsomes 0.5 mg/mL • NADPH (cofactor) 1 mM • Potassium Phosphate, pH 7.4 100 mM • Magnesium Chloride 5 mM • Test Article 1 μM

[6] = Stability in liver microsomes, rat; details: rat
Method: as §2, §3

[7] = Stability in liver microsomes, dog; details: dog
Method: as §2, §3

[8] = both, human, 15 min, 100 μM, pH 7.4
[9] = male, Sprague-Dawley, rat, 15 min, 100 μM, pH 7.4
[10] = male, Beagle, dog, 15 min, 100 μM, pH 7.4

CCCCCC(CCC1C(O)CC2Cc3c(cccc3OCC(=O)O)CC21)OC(=O)NC (stereo not drawn) [VIII]
Trep Concentration (μM) 0 min [1]: 0 µM | Trep Concentration (μM) 15 min [1]: 0 µM | Trep Concentration (μM) 30 min [1]: 0 µM | Trep Concentration (μM) 60 min [1]: 0.00464 µM | Trep Concentration (μM) 120 min [1]: 0 µM | AUC ([1]; human): 0.21 µmol·min/L | Trep Concentration (μM) 0 min [2]: 0 µM | Trep Concentration (μM) 15 min [2]: 0 µM | Trep Concentration (μM) 30 min [2]: 0 µM | Trep Concentration (μM) 60 min [2]: 0.00511 µM | Trep Concentration (μM) 120 min [2]: 0 µM | AUC ([2]; rat): 0.23 µmol·min/L | Trep Concentration (μM) 0 min [3]: 0 µM | Trep Concentration (μM) 15 min [3]: 0 µM | Trep Concentration (μM) 30 min [3]: 0 µM | Trep Concentration (μM) 60 min [3]: 0 µM | Trep Concentration (μM) 120 min [3]: 0 µM | AUC ([3]; dog): 0.00 µmol·min/L | Trep Concentration 0 min [4]: 0 µM | Trep Concentration 30 min [4]: 0 µM | Trep Concentration 60 min [4]: 0 µM | Trep Concentration 120 min [4]: 0 µM | AUC ([4]; human): 0.00 µmol·min/L

CCCCCC(CCC1C(O)CC2Cc3c(cccc3OCC(=O)O)CC21)OCc1oc(=O)oc1C (stereo not drawn) [LI]
Trep Concentration (μM) 0 min [1]: 0.0425 µM | Trep Concentration (μM) 15 min [1]: 0.647 µM | Trep Concentration (μM) 30 min [1]: 0.626 µM | Trep Concentration (μM) 60 min [1]: 0.608 µM | Trep Concentration (μM) 120 min [1]: 0.55 µM | AUC ([1]; human): 67.97 µmol·min/L | Trep Concentration (μM) 0 min [2]: 0.327 µM | Trep Concentration (μM) 15 min [2]: 0.703 µM | Trep Concentration (μM) 30 min [2]: 0.61 µM | Trep Concentration (μM) 60 min [2]: 0.523 µM | Trep Concentration (μM) 120 min [2]: 0.464 µM | AUC ([2]; rat): 64.18 µmol·min/L | Trep Concentration (μM) 0 min [3]: 0.0214 µM | Trep Concentration (μM) 15 min [3]: 0.627 µM | Trep Concentration (μM) 30 min [3]: 0.605 µM | Trep Concentration (μM) 60 min [3]: 0.537 µM | Trep Concentration (μM) 120 min [3]: 0.482 µM | AUC ([3]; dog): 61.80 µmol·min/L

C[C@]12CC[C@H]3[C@@H](CCC4=CC(=O)CC[C@@]43C)[C@@H]1CC[C@@H]2O [Testosterone, testosterone, reference compound]
Half-life (positive control) ([1]; human hepatocytes, 1 μM, control): 4.82 min

CCCCCC(CCC1C(O)CC2Cc3c(cccc3OCC(=O)O)CC21)OC(=O)OC (stereo not drawn) [IV 1st]
AUC ([4]; human): 7.07 µmol·min/L

CCCCCC(CCC1C(O)CC2Cc3c(cccc3OCC(=O)O)CC21)OC(=O)CCC(=O)O (stereo not drawn) [XX new]
Trep Concentration 0 min [4]: 0 µM | Trep Concentration 30 min [4]: 0.00878 µM | Trep Concentration 60 min [4]: 0.0149 µM | Trep Concentration 120 min [4]: 0.0271 µM | AUC ([4]; human): 1.75 µmol·min/L

CCCCCC(O)CCC1C(O)CC2Cc3c(cccc3OCC(=O)NCC(=O)O)CC21 (stereo not drawn) [VII new]
AUC ([4]; human): 0.00 µmol·min/L

CCCCCC(CCC1C(O)CC2Cc3c(cccc3OCC(=O)O)CC21)OC(=O)OCCOC (stereo not drawn) [XL]
Trep Concentration 0 min [4]: 0 µM | Trep Concentration 30 min [4]: 0.202 µM | Trep Concentration 60 min [4]: 0.329 µM | Trep Concentration 120 min [4]: 0.59 µM | AUC ([4]; human): 38.57 µmol·min/L

O=c1ccc2ccc(O)cc2o1 [7-Hydroxycoumarin, 7-hydroxycoumarin, reference compound]
Formation Rate of 7-HC-G (glucuronide) [1, 8]: 97.7 pmol/min/10^6 cells | Formation Rate of 7-HC-S (sulfate) [1, 8]: 10.8 pmol/min/10^6 cells | Formation Rate of 7-HC-G (glucuronide) [2, 9]: 91.4 pmol/min/10^6 cells | Formation Rate of 7-HC-S (sulfate) [2, 9]: 24.7 pmol/min/10^6 cells | Formation Rate of 7-HC-G (glucuronide) [3, 10]: 114 pmol/min/10^6 cells | Formation Rate of 7-HC-S (sulfate) [3, 10]: 35.9 pmol/min/10^6 cells

CCCCCC(CCC1C(O)CC2Cc3c(cccc3OCC(=O)O)CC21)OC(=O)OCCOCCOC (stereo not drawn) [XLI]
Trep Concentration 0 min [4]: 0 µM | Trep Concentration 30 min [4]: 0.0526 µM | Trep Concentration 60 min [4]: 0.091 µM | Trep Concentration 120 min [4]: 0.19 µM | AUC ([4]; human): 11.37 µmol·min/L

CCCCCC(CCC1C(O)CC2Cc3c(cccc3OCC(=O)O)CC21)OC(=O)OC (stereo not drawn) [Prodrug IV]
AUC Mono (treprostinil formed) [5]: 16.9 µmol·min/L | AUC Mono (treprostinil formed) [6]: 49.7 µmol·min/L | AUC Mono (treprostinil formed) [7]: 56.0 µmol·min/L | Mono AUC (treprostinil formed) ([1]; human): 39.8 µmol·min/L | Mono AUC (treprostinil formed) ([2]; rat): 70.0 µmol·min/L | Mono AUC (treprostinil formed) ([3]; dog): 48.0 µmol·min/L | Mono AUC (treprostinil formed) ([4]; human): 9.59 µmol·min/L

CCCCCC(CCC1C(O)CC2Cc3c(cccc3OCC(=O)O)CC21)OC(=O)OC (stereo not drawn) [IV 2nd]
AUC ([4]; human): 62.69 µmol·min/L

CCCCCC(CCC1C(O)CC2Cc3c(cccc3OCC(=O)O)CC21)OC(=O)OC (stereo not drawn) [IV 3rd]
AUC ([4]; human): 9.59 µmol·min/L

CCCCCC(O)CCC1C(O)CC2Cc3c(cccc3OCC(=O)NCC(=O)O)CC21 (stereo not drawn) [VII orig]
AUC ([4]; human): 0.14 µmol·min/L
